Source: patent publication US20190291112A1, “DROPLET MICROFLUIDICS FOR DRUG SCREENING” (University of Macau, priority 2018, published 2019)

Tested on: NAS1605 primary nasopharyngeal tumor sample
Experiment: On chip drug screening of primary tumor dissociated cells
Assay type: cell-based, human
Conditions: NAS1605, 16-24 h, normalized to mock treatment
Description: All human studies were conducted with the approval of the Panel on Research Ethics of University of Macau and the Research Ethics Committee of Kiang Wu Hospital, according to the Materials Transfer Agreement between University of Macau and Kiang Wu Hospital. Informed consent for sampling and publication without identifiable information was obtained from all participating patients. All patient sample names were double encoded by the university and the hospital, respectively, to remove any trace of patient identity during sample collection, transfer, processing and analysis. Primary tumors were obtained from surgery conducted at Kiang Wu Hospital immediately after tumor resection. Tumor tissue was dissociated as previously described. Briefly, tumor tissue was first cut into small pieces by a scalpel, then transferred to a 50 mL conical tube containing 5 mL Digestion Buffer I (DMEM/F12 medium containing 5% FBS, 5 μg/mL insulin, 500 ng/mL hydrocortisone, 10 ng/mL epidermal growth factor (EGF), 20 ng/mL cholera toxin, 300 U/mL collagenase III and 100 U/mL hyaluronidase), and digested for no more than 12 h with shaking at 100 rpm in humidified incubator at 37° C. supplemented with 5% CO2. After spinning down at 400 g at ambient temperature for 2 min, the cells were resuspended with 2 mL Digestion Buffer II (DMEM/F12 medium containing 5 mg/mL dispase II and 0.1 mg/mL deoxyribonuclease I), followed by digestion at ambient temperature for 5 min. The cells were then washed with 10 mL HBSS (Life Technologies, USA). […]
Briefly, cells at final concentrations of 1-2×10^6 cells per mL were aliquoted in 0.2 mL PCR tubes, then mixed with corresponding drugs and 2 μM ethidium homodimer 1 (Life Technologies, USA) by manual pipetting. […] Brightfield and red fluorescence images (Ex. 531/40 nm, Em. 593/40 nm) were taken under 10× magnification (Life Technologies EVOS FL Imaging System, USA).
For on chip assays, the number of cells was counted in brightfield and red fluorescence images from each well respectively. Cell viability was calculated as follows: […]

## CC(C)C[C@H](NC(=O)[C@H](Cc1ccccc1)NC(=O)c1cnccn1)B(O)O [bortezomib]
  dose dependence of normalized cell viability: dose-dependent reduction of cell viability
